Laboratory results published in US11401255B2, “Small molecule activators of Parkin enzyme function” (Mayo Foundation for Medical Education and Research, priority 2016, dated 2022).
Where two headings read alike, the source gives them in different places.

How the values were obtained:
HeLa cells = assay: Mitochondrial membrane potential (JC-10 assay); type: cell-based, human; conditions: 5 μM, compared to DMSO control
Procedure: In order to exclude compounds that diminish the mitochondrial membrane potential, a JC-10 assay was used. HeLa cells were plated in 384-well plates and treated with different doses of CCCP or with 5 μM of Compounds 1, 2, 3, 4, and 31 as indicated for 2 h. The JC-10 dye was added to the live cells and cells are stained for 45 minutes. The plates were then measured with a fluorescent plate reader. JC-10 is a mitochondrial dye that emits red fluorescence in the presence of mitochondrial membrane potential. The fluorescence will change to green in the absence of mitochondrial membrane potential. […] Shown are average values of 3 independent experiments. Statistical analysis was performed by one-way ANOVA with Tukey's post-hoc test. ***, p<0.0005.
Mitochondrial depolarization was assessed using a JC10 assay kit (Sigma, MAK159). HeLa Parkin cells were seeded with […] in 20 μL volume into 384-well plates with clear bottom. The following day 5 μL of CCCP or compounds were added as 5× solutions. Equal volume of DMSO served as a negative control. Cells were incubated for 4 h before 12.5 μL of JC10 dye diluted in buffer A was added to the wells. One hour later the reaction was stopped with 12.5 μL of buffer B and the plate was measured immediately on a Spectramax M5 plate reader (Molecular devices) with bottom read using dual fluorescence (green: Ex 485 nm, Em 538 nm, cut-off at 515 nm; red: Ex 544 nm, Em 590 nm, cut-off at 570 nm). Mitochondrial depolarization was assessed by building the green to red ratio.

TA 1535 = system: TA 1535
Text: (§1) The test used amino acid-dependent strains of Salmonella typhimurium and Escherichia coli to detect point mutations which involved substitution, addition or deletion of one or a few DNA base pairs. Point mutations were introduced in the histidine (Salmonella typhimurium) or the tryptophan (Escherichia coli) operon, making the tester strains incapable of producing these amino acids. The test detected mutations that revert the mutations present in the bacteria, restoring the functional capability to synthesize histidine or tryptophan. The revertant bacteria were detected by the ability to grow in the absence of the amino acid required by the parent test strain. A mutagenic potential of a tested compound was assessed by exposing these bacterial strains to different concentrations of the compounds and estimating number of revertant colonies grown in the absence (trace quantities) of the amino acid.
(§2) DMSO was used as the negative control.
(§3) For each experiment, tester strain cultures were grown overnight in Oxoid nutrient broth #2 at 37° C. with shaking at 235 rpm to a density of 1-2×10^9 colony forming units/mL (OD540˜2).
(§4) The tester strain (10 μL of night culture) was mixed with the test agent (10 µL of the DMSO stock) and GM liquid medium (30 μL). The obtained mixture was incubated at room temperature for 5 min in a sterile 1.5 mL tube. Then, to the tube was added 200 μL of molten top agar stored at 44° C. to prevent solidifying. After mixing with a pipette, the mixture was poured onto the surface of a GM agar plate (2.0 mL of GM agar per plate). After solidifying the top agar, the plate was inverted and incubated at 37° C. for 48 hours. Then, results were expressed as number of revertant colonies per plate.

TA 1537 = assay: Ames Test, strain TA 1537
Text: as §1, §2, §3, §4

HepG2 cells = assay: Cytotoxicity assay (resazurin), HepG2 cell proliferation inhibition; type: cell-based; conditions: Homo sapiens, 24 hours
Procedure: Compounds 1-4 and 31 were tested in a cytotoxicity assay. The assay was based on the conversion of the non-fluorescent dye resazurin to the fluorescent compound rezorufin in the reducing environment of living cell cytoplasm. The more living cells in a sample result in higher fluorescence, while less living cells result in lower fluorescence.
HepG2 cells were cultivated in a humidified atmosphere at 37° C. and 5% CO2 in 75 cm^2 flasks to 80-90% of confluence and split twice per week with a subcultivation ratio of 1:4. The cell layer was rinsed with PBS to remove all traces of serum. Then 3.0 mL of solution containing 0.25% (w/v) trypsin and 0.53 mM EDTA was added to the flask and incubated about 10 minutes. The HepG2 cells were detached using a scraper and re-suspended in DMEM containing 10% FBS and 2 mM glutamine. The cell suspension with a final concentration of 5×10^5 cells/mL was dispensed into sterile 96-well black wall clear flat bottom plates as previously described (McMillian et al. (2002) Cell Biol. Toxicol. 18(3):157-173; Mulvihill et al. (2009) Future Med. Chem. 1(6):1153-1171) and the test compounds were added.
The compound DMSO stock solutions were diluted with PBS to achieve an intermediate concentration of 1 mM. The cell proliferation assessment was performed at different concentrations of compounds ranging from 0.1 μM to 100 μM. Doxorubicin at a final concentration of 20 μM was used as a positive control. After compound addition, cells were incubated for 24 hours in a humidified atmosphere at 37° C. and 5% CO2.
Resazurin was added to the final concentration (50 μM) and incubated for 4 hours under the same conditions. Presence of rezorufin (cell viability) was quantified by measuring fluorescence (Ex—490 nm, Em—540 nm; see Vega-Avila and Pugsley (2011) Proc. West Pharmacol. Soc. 54:10-14).
The percent of cell proliferation inhibition was calculated by applying the following formula: […]

hERG channel = hERG channel (Homo sapiens (Human), UniProt Q12809)
hERG channel, sequence (Q12809 whole entry): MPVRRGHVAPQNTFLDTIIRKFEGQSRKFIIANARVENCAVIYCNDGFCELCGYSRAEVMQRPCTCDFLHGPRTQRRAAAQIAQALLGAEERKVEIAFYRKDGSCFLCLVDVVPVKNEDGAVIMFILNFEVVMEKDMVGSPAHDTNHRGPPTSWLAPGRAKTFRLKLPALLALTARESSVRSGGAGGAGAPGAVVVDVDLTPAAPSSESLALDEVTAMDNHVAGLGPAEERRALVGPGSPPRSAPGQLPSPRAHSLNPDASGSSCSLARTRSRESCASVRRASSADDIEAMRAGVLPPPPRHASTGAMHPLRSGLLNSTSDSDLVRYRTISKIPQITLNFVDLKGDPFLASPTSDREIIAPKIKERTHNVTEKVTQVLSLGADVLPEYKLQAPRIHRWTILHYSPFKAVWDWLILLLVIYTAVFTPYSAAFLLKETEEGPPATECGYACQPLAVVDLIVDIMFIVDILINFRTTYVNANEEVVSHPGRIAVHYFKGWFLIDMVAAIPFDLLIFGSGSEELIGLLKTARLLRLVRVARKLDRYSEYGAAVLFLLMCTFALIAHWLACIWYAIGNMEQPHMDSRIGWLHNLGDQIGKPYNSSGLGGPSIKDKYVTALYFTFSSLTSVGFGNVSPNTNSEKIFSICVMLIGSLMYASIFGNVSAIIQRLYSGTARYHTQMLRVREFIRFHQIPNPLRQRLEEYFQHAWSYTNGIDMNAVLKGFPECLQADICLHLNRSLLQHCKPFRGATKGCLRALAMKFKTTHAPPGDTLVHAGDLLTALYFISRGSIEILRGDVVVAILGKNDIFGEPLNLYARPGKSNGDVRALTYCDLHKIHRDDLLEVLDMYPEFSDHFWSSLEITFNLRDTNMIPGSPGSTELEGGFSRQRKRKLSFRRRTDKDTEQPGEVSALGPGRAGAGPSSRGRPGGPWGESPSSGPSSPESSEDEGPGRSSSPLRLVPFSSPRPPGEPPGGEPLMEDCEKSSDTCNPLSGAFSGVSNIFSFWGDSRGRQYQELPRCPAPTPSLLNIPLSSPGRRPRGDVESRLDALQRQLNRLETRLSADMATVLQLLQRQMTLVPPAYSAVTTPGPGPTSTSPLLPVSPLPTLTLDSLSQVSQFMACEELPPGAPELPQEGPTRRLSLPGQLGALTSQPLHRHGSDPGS
Text: Fluorescence polarization (FP) readout technology is based on the observation that when a small fluorescent molecule (the tracer) is excited by the polarized light, the emitted light is largely depolarized because of the rapid rotation of the molecule in the solution during its fluorescence lifetime. The hERG predictor assay provides valuable information about the possible binding of test compounds to the potassium channel and potential QT prolongation on […].
All experiments were performed using the Predictor™ hERG Fluorescence Polarization Assay in accordance with the manufacturer's protocol PV5365 (Invitrogen, Carlsbad, Calif.).
The hERG reaction was performed by incubating the tracer and membranes with hERG channel for 2-4 hours in the solution. The fluorescence polarization was maximal when nothing interfered with the reaction of the tracer and hERG membranes (minimal tracer rotation). But when a tested compound competed with the tracer for the hERG channel, the polarization of emitted light lowered due to the ability of free unbound tracer to rotate rapidly in the solution.
All test points for the compounds were performed in quadruplicates. Three dilutions of the tested compounds were assessed—1 μM, 5 μM and 20 μM.

[1] = TA 1537, 50 μM (row printed 100; conc. column shifted)
[2] = TA 1537, 100 μM (row printed 200; conc. column shifted)
[3] = TA 1537, 200 μM (row printed 300; conc. column shifted)

SMILES	effect on JC-10 (mitochondrial depolarization) (HeLa cells)	Fold increase (over baseline) (TA 1535; TA 1535, 50 μM)	Mean ± SD (TA 1535; TA 1535, 50 μM)	Fold increase (over baseline) (TA 1535; TA 1535, 100 μM)	Mean ± SD (TA 1535; TA 1535, 100 μM)	Fold increase (over baseline) (TA 1535; TA 1535, 200 μM)	Mean ± SD (TA 1535; TA 1535, 200 μM)	Fold increase (over baseline) (TA 1537; [1])	Mean ± SD (TA 1537; [1])	Fold increase (over baseline) (TA 1537; [2])	Mean ± SD (TA 1537; [2])	Fold increase (over baseline) (TA 1537; [3])	inhibition at 0.1 µM (HepG2 cells) [%]	inhibition at 0.3 µM (HepG2 cells) [%]	inhibition at 1 µM (HepG2 cells) [%]	inhibition at 3 µM (HepG2 cells) [%]	inhibition at 10 µM (HepG2 cells) [%]	inhibition at 30 µM (HepG2 cells) [%]	inhibition at 100 µM (HepG2 cells) [%]	Binding values, % Mean (hERG channel; 1 μM) [%]	also measured
O=C(Cn1cnc2c1CCCC2)Nc1ccc(-c2ccccc2)cc1 [Compound 1]	did not show an effect	0.23	1 ± 0 revertant colonies per plate	0	0 ± 0 revertant colonies per plate	0	0 ± 0 revertant colonies per plate	0.23	0.5 ± 0.7 revertant colonies per plate	0.45	1 ± 1.41 revertant colonies per plate	0.45	-0.1	-2	-0.6	-1.8	-3.9	-2.5	0.1	83	Binding values, % Mean (hERG channel; 5 μM): 99%; Binding values, % Mean (hERG channel; 20 μM): 103%
CC(C)c1nccn1CC(=O)Nc1ccc(-c2ccccc2)cc1 [Compound 2]	did not show an effect	0	0 ± 0 revertant colonies per plate	0.68	3 ± 0 revertant colonies per plate	0.23	1 ± 0 revertant colonies per plate	0.68	1.5 ± 2.12 revertant colonies per plate	0.45	1 ± 0 revertant colonies per plate	0.23	-1.8	2.8	1.2	5.6	2.6	2.4	14.7	47	Binding values, % Mean (hERG channel; 5 μM): 74%; Binding values, % Mean (hERG channel; 20 μM): 91%
CC(C)(C)Sc1ccc(NC(=O)Cn2ccnc2)cc1 [Compound 3]	did not show an effect	0.34	1.5 ± 0.7 revertant colonies per plate	0	0 ± 0 revertant colonies per plate	>34	>150 revertant colonies per plate	0.45	1 ± 1.41 revertant colonies per plate	0.23	0.5 ± 0.7 revertant colonies per plate	5.68	-2.1	0.2	2.4	3.9	2.6	-0.1	0.5	41	mutagenic activity (TA 1535; TA 1535, 200 μM): mutagenic activity; Binding values, % Mean (hERG channel; 5 μM): 115%; Binding values, % Mean (hERG channel; 20 μM): 99%
O=C(Cn1ccnc1-c1ccccn1)Nc1ccc(-c2ccccc2)cc1 [Compound 4]	did not show an effect	0.23	1 ± 0 revertant colonies per plate	0.34	1.5 ± 0.7 revertant colonies per plate	0	0 ± 0 revertant colonies per plate	0.23	0.5 ± 0.7 revertant colonies per plate	0	0 ± 0 revertant colonies per plate	0.23	-1.8	0.1	0.8	5.4	-1.4	-3.8	-5.5	26	Binding values, % Mean (hERG channel; 5 μM): 27%; Binding values, % Mean (hERG channel; 20 μM): 22%
Cc1nc2c(c(N3CCCN(Cc4ccccc4)CC3)n1)CCCC2 [Compound 31]	significantly increased depolarization of mitochondria	0.57	2.5 ± 2.12 revertant colonies per plate	0.23	1 ± 0 revertant colonies per plate	0.57	2.5 ± 0.7 revertant colonies per plate	0.45	1 ± 1.41 revertant colonies per plate	0	0 ± 0 revertant colonies per plate	0.23	2	-0.8	-1.5	-0.9	-2.2	-5.4	-17.7	45	Binding values, % Mean (hERG channel; 5 μM): 73%; Binding values, % Mean (hERG channel; 20 μM): 88%
